Experimental data as given in US8993562B2, “Imidazo[1,2-b]pyridazines, processes, uses, intermediates and compositions” (Ferrer Internacional, S.A., priority 2006, dated 2015).

Columns and labels:
male CD1 mice [1] = test: In vivo predictive anesthetic test (loss of righting reflex)
Description: c) In Vivo Determination of Predictive Anesthetic Activity
The in vivo effects of these compounds were assessed by a predictive anesthetic test in mice as the loss of righting reflex (Kralic et al., Neuropharmacology, 43(4), 685-689 2002; Belelli et al., Neuropharmacology, 45, 57-71, 2003).
Groups of 5-8 male CD1 mice, weighing 22-26 g at the time of test, were used. The test compounds were administered at 98.0 μmol/kg by mean of intraperitoneal injection. Compounds were suspended in 0.25% agar with one drop of Tween in a volume of 10 mL/kg.

male CD1 mice [2] = test: In vivo predictive sedation-hypnosis test (traveled distance); details: Mus musculus, ip, 0.5 h, traveled distance over 30 min versus control, read-out: % inhib motor activity; for inhibition in vivo at 0.98 µmol/kg: 0.98 μmol/kg intraperitoneal; for inhibition in vivo at 98 µmol/kg: 98.0 μmol/kg intraperitoneal
Description: b) In Vivo Determination of Predictive Sedative-hypnotic Action
The in vivo effects of these compounds were assessed by a predictive sedation-hypnosis test in mice (D. J. Sanger et al., Eur. J. Pharmacol., 313, 35-42, 1996; and G. Griebel et al., Psychopharmacology, 146, 205-213, 1999).
Groups of 5-8 male CD1 mice, weighing 22-26 g at the time of test, were used. […] Compounds were suspended in 0.25% agar with one drop of Tween in a volume of 10 mL/kg. Control animals were given the vehicle alone. Using a Smart System (Panlab, S. L., Spain) the traveled distance in cm is recorded for each mouse at 5-minutes intervals during a period of 30 minutes after dosing. The inhibition percentage of traveled distance of treated animals versus control animals (the first 5 minutes were discarded) was calculated.

α2-GABAA receptor = test: Ligand-binding assay, radiolabeled flumazenil competition, spinal cord membranes; details: rat spinal cord membranes, radiolabeled flumazenil 1 nM
Description: (§1) a) Ligand-binding Assays. Determination of the Affinity of Test Compounds for α1- and α2-GABAA Receptor
(§2) Male Sprague-Dawley rats weighing 200-250 g at the time of experiment were used. After decapitation of the animal, the cerebellum (tissue that mostly contains α1-GABAA receptor) and spinal cord (tissue that mostly contains α2-GABAA receptor) were removed. The membranes were prepared according to the method by J. Lameh et al. (Prog. Neuro-Psychopharmacol. Biol. Psychiatry, 24, 979-991, 2000) and H. Noguchi et al. (Eur J Pharm, 434, 21-28, 2002) with slight modifications. Once the tissues weighed, they were suspended in 50 mM Tris.HCl (pH 7.4), 1:40 (v/v), or sucrose 0.32 M in the case of spinal cord, homogenized and then centrifuged at 20000 g for 10 minutes at 7° C. The resulting pellet was resuspended under the same conditions and centrifuged again. The pellet was finally resuspended on a minimum volume and kept at −80° C. overnight. A slight modification was used in the case of spinal cord at the first centrifugation step. Centrifugation speed was at 1000 g and the supernatant was collected instead of discarded as in cerebellum. Then, supernatant was centrifuged at 20000 g and resuspended twice more under the same conditions described above for cerebellum. On the next day, the process was repeated until the final pellet was resuspended at a ratio of 1:10 (v/v) in the case of cerebellum and at a ratio of 1:5 (v/v) in the case of spinal cord.
(§3) Affinity was determined by competitive tests using radiolabeled flumazenil as ligand. The tests were performed according to the methods described by S. Arbilla et al. (Eur. J. Pharmacol., 130, 257-263, 1986); and Y. Wu et al. (Eur. J. Pharmacol., 278, 125-132, 1995) using 96-well microtiter plates. The membranes containing the study receptors, flumazenil (radiolabeling at a final concentration of 1 nM) and ascending concentrations of test compounds (in a total volume of 230 μl in 50 mM [pH 7.4] Tris.HCl buffer) were incubated. Simultaneously, the membranes were only incubated with the radiolabeled flumazenil (total binding, 100%) and in the presence of an elevated concentration of unradiolabeled flumazenil (non-specific binding, % estimation of radiolabeled ligand). The reactions started on adding the radiolabeled ligand followed by incubation for 60 minutes at 4° C. At the end of the incubation period, 200 μl of reaction were transferred to a multiscreen plate (Millipore) and filtered using a vacuum manifold and then washed three times with cold test buffer. The multiscreen plates were equipped with a GF/B filter that retained the membranes containing the receptors and the radiolabeled ligand which had been bound to the receptors. After washing, the plates were left till dry. Once dried, scintillation liquid was added and left under stirring overnight. The next day the plates were counted using a Perkin-Elmer Microbeta scintillation counter.
(§4) For analysis of the results the percentage of specific binding for every concentration of test compound was calculated as follows: specific binding−(X−N/T−N)×100 where, X: amount of bound ligand for every concentration of compound. T: total binding, maximum amount bound to the radiolabeled ligand. N: non-specific binding, amount of radiolabeled ligand bound in a non-specific way irrespective of the receptor used.
(§5) Every concentrations of compound were tested in triplicate and their mean values were used to determine the experimental values of % specific binding versus the concentration of compound. Affinity data are expressed as % inhibition at 10^−5M and 10^−7M concentrations.

α1-GABAA receptor = test: Ligand-binding assay, radiolabeled flumazenil competition, cerebellum membranes; details: rat cerebellum membranes, radiolabeled flumazenil 1 nM
Description: as §1, §2, §3, §4, §5

GABAA receptor = molecular target: T1, GABAA receptor; test: Comparative assay: IC50 values estimated from Cheng-Prusoff equation; assay type: binding, rat; details: compounds of the invention; estimated from Ki by Cheng-Prusoff equation, radioligand 1 nM
T1 construct: IC50; other: compounds of the invention; estimated from Ki by Cheng-Prusoff equation, radioligand 1 nM
Description: All these compounds have in common that at 3-position, the imidazo[1,2-b]pyradizine ring have an acetamide. The rest of compounds disclosed in WO89/01333 are not structurally so related with the compounds of the present invention.
The IC50 values were estimated from Cheng-Prusoff equation (Cheng Y. C. and Prusoff W. H.; Biochem. Pharmacol. 22, 3099-3108, 1973)
[formula] where, Ki is determined for each one of the compounds of the invention as described above (section (a)). [RL*]: radiolabeled ligand concentration (1 nM). Kd: affinity constant (cerebellum 1.34 nM/spinal cord 1.19 nM)

SMILES | % of animals with loss of righting reflex (male CD1 mice [1]; 98.0 μmol/kg intraperitoneal) [%] | inhibition in vivo at 0.98 µmol/kg (male CD1 mice [2]) [%] | inhibition in vivo at 98 µmol/kg (male CD1 mice [2]) [%] | % inhib 10^−5 M, affinity for the α2-subunit of the GABAA receptor (α2-GABAA receptor) [%] | % inhib 10^−7 M, affinity for the α2-subunit of the GABAA receptor (α2-GABAA receptor) [%] | % inhib 10^−5 M, affinity for the α1-subunit of the GABAA receptor (α1-GABAA receptor) [%] | % inhib 10^−7 M, affinity for the α1-subunit of the GABAA receptor (α1-GABAA receptor) [%] | IC50 (GABAA receptor) [nM] | % of animals with loss of righting reflex (male CD1 mice [1]; double dose than compounds of the present invention) [%]
CCCN(CCC)C(=O)Cc1c(-c2ccc(C)cc2)nc2ccc(Cl)nn12 [Example 2, 2-(6-Chloro-2-p-tolyl-imidazo[1,2-b]pyridazin-3-yl)-N,N-dipropyl-acetamide] | 90 | 38.4 | 96.7 | – | – | – | – | – | –
CCCCN(CCCC)C(=O)Cc1c(-c2ccc(C)cc2)nc2ccc(Cl)nn12 [Example 3, N,N-Dibutyl-2-(6-chloro-2-p-tolyl-imidazo[1,2-b]pyridazin-3-yl)-acetamide] | 100 | 14.6 | 90.9 | – | – | – | – | – | –
COc1ccc(-c2nc3ccc(C)nn3c2CC(=O)N2CCCCC2)cc1 [Example 73, 2-[2-(4-Methoxy-phenyl)-6-methyl-imidazo[1,2-b]pyridazin-3-yl]-1-piperidin-1-yl-ethanone] | – | – | 94.1 | 77.0 | 20.6 | 99.9 | 76.5 | – | –
CCN(CC)C(=O)Cc1c(-c2ccc(OC)cc2)nc2ccc(OC)nn12 [Example 75, N,N-Diethyl-2-[6-methoxy-2-(4-methoxy-phenyl)-imidazo[1,2-b]pyridazin-3-yl]-acetamide] | – | – | 92.6 | 68.8 | 9.3 | 99.4 | 52.1 | – | –
CCCN(CC1CC1)C(=O)Cc1c(-c2ccc(C)cc2)nc2ccc(C)nn12 [Example 82, N-Cyclopropylmethyl-2-(6-methyl-2-p-tolyl-imidazo[1,2-b]pyridazin-3-yl)-N-propyl-acetamide] | 30 | – | 94.2 | – | – | – | – | – | –
Cc1ccc(-c2nc3ccc(C)nn3c2CC(=O)Nc2nccs2)cc1 [Example 83, 2-(6-Methyl-2-p-tolyl-imidazo[1,2-b]pyridazin-3-yl)-N-thiazol-2-yl-acetamide] | – | – | 88.9 | 93.1 | 57.7 | 99.6 | 97.6 | – | –
Cc1ccc(-c2nc3ccc(C)nn3c2CC(=O)N(C(C)C)C(C)C)cc1 [Example 84, N,N-Diisopropyl-2-(6-methyl-2-p-tolyl-imidazo[1,2-b]pyridazin-3-yl)-acetamide] | – | – | 90.8 | 63.9 | 3.1 | 100.0 | 91.7 | – | –
Cc1ccc(-c2nc3ccc(C)nn3c2CC(=O)Nc2ccccc2)cc1 [Example 86, 2-(6-Methyl-2-p-tolyl-imidazo[1,2-b]pyridazin-3-yl)-N-phenyl-acetamide] | – | – | 92.6 | 80.9 | 23.0 | 99.5 | 75.9 | – | –
Cc1ccc(-c2nc3ccc(C)nn3c2CC(=O)Nc2ccccn2)cc1 [Example 88, 2-(6-Methyl-2-p-tolyl-imidazo[1,2-b]pyridazin-3-yl)-N-pyridin-2-yl-acetamide] | – | – | 88.5 | – | – | 100.2 | 83.9 | 13 | –
Cc1ccc(-c2nc3ccc(C)nn3c2CC(=O)Nc2cc(C)on2)cc1 [Example 95, N-(5-Methyl-isoxazol-3-yl)-2-(6-methyl-2-p-tolyl-imidazo[1,2-b]pyridazin-3-yl)-acetamide] | – | – | – | – | – | – | – | 17.1 | –
Cc1ccc(-c2nc3ccc(C)nn3c2CC(=O)Nc2cc(C)no2)cc1 [Example 97, N-(3-Methyl-isoxazol-5-yl)-2-(6-methyl-2-p-tolyl-imidazo[1,2-b]pyridazin-3-yl)-acetamide] | – | – | – | – | – | – | – | 14.6 | –
Cc1ccc(-c2nc3ccc(C)nn3c2CC(=O)Nc2nncs2)cc1 [Example 98, 2-(6-Methyl-2-p-tolyl-imidazo[1,2-b]pyridazin-3-yl)-N-[1,3,4]thiadiazol-2-yl-acetamide] | – | – | – | – | – | – | – | 12.2 | –
Cc1ccc(-c2nc3ccc(C)cn3c2CC(=O)N(C)C)cc1 [zolpidem, N,N,6-trimethyl-2-p-tolylimidazo[1,2-a]pyridine-3-acetamide, reference compound] | – | 18.3 | 91.7 | 74.1 | 19.9 | 99.4 | 73.6 | – | 80
